Where a SMILES comes first, the peptide text is derived from it. [ ]: non-standard residue; d: D form. The star is where a group is joined. ξ: configuration not given here. FITC = O=C1OC2(c3ccc(O)cc3Oc3cc(O)ccc32)c2ccc(NC(=S)*)cc21; Phe(4-NO2) = N[C@@H](Cc1ccc([N+](=O)[O-])cc1)C(=O)O; ξAla(4-thiazolyl) = NC(Cc1cscn1)C(=O)O; pS = N[C@@H](COP(=O)(O)O)C(=O)O; β3hS = N[C@@H](CO)CC(=O)O; Nva = CCC[C@H](N)C(=O)O; AEA = NCCOCC(=O)O; βAla = NCCC(=O)O

The test deals with T1, 14-3-3γ (Homo sapiens, UniProt P61981).
T1 construct: made in house; host or cells: E. coli NiCo21 (DE3)
T1 sequence (P61981 1-247): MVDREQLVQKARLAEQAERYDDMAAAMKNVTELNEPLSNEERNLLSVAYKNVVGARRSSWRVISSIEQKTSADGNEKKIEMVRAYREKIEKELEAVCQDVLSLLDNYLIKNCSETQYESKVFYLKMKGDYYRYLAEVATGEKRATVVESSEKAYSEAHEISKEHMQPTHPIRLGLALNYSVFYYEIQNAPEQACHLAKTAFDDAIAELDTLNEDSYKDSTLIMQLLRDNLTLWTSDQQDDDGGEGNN
Put plainly: Fluorescence anisotropy (FA) binary binding study: 14-3-3 titrated to fluorescein-labelled peptide. To be noted: for individual ΔΔG of removed residue / ΔΔG (to previous): FA; for individual ΔΔG of removed residue: ΔG relative to the previously truncated peptide; for Fold change to previous / ΔG / ΔΔG (to previous): Table S3. The protocol:
14-3-3γ protein expression (FP/ITC experiments)
(§1) A pPROEX HTb expression vector encoding the human 14-3-3 protein gamma (14-3-3γ) with an N-terminal his6-tag was transformed by heat shock into NiCo21 (DE3) competent cells. Single colonies were cultured in 50 mL LB medium (100 µg/mL ampicillin). After overnight incubation at 37 °C, cultures were transferred to 2 L TB media (100 µg/mL ampicillin, 1 mM MgCl2) and incubated at 37 °C until an OD600 nm of 0.8-1.2 was reached. Protein expression was then induced with 0.4 mM isopropyl-β-d-thiogalactoside (IPTG), and cultures were incubated overnight at 18 °C. Cells were harvested by centrifugation (8600 rpm, 20 minutes, 4 °C) and resuspended in lysis buffer (50 mM Hepes, pH 8.0, 300 mM NaCl, 12.5 mM imidazole, 5 mM MgCl2, 2 mM βME) containing cOmplete™ EDTA-free Protease Inhibitor Cocktail tablets (1 tablet/100 ml lysate) and benzonase (1 µl/100 ml). After lysis using a C3 Emulsiflex-C3 homogenizer (Avestin), the cell lysate was cleared by centrifugation (20000 rpm, 30 minutes, 4 °C) and purified using Ni2+-affinity chromatography (Ni-NTA superflow cartridges, Qiagen).
Typically two 5 mL columns (flow 5 mL/min) were used for a 2 L culture in which the lysate was loaded on the column washed with 10 CV wash buffer (50 mM Hepes, pH 8.0, 300 mM NaCl, 25 mM imidazole, 2 mM βME) and eluted in several fractions (2-4 CV) of elution buffer (50 mM Hepes, pH 8.0, 300 mM NaCl, 250 mM imidazole, 2 mM βME). Fractions containing the 14-3-3 protein were combined and dialyzed into 25 mM HEPES pH 8.0, 100 mM NaCl, 10 mM MgCl2, 500 µM TCEP. Finally, the protein was concentrated to ∼60 mg/mL, analyzed Q-Tof LC/MS, and aliquots were flash-frozen for storage at […]
as §1, with “sigma truncated after T231 (14-3-3σΔc) and” for “gamma (14-3-3γ)”, “tablet/ 100” for “tablet/100”, “µl/ 100” for “µl/100”, “ml).” for “ml). After lysis using a C3 Emulsiflex-C3 homogenizer (Avestin), the cell lysate was cleared by centrifugation (20000 rpm, 30 minutes, 4 °C) and purified using Ni2+-affinity chromatography (Ni-NTA superflow cartridges, Qiagen).”
After lysis using a C3 Emulsiflex-C3 homogenizer (Avestin), the cell lysate was cleared by centrifugation (20000 rpm, 30 minutes, 4 °C) and purified using Ni2+-affinity chromatography (Ni-NTA superflow cartridges, Qiagen). Typically two 5 mL columns were used for a 2 L culture in which the lysate was loaded on the column washed with 10 CV wash buffer (50 mM Hepes, pH 8.0, 300 mM NaCl, 25 mM imidazole, 2 mM βME) and eluted with several fractions (2-4 CV) of elution buffer (50 mM Hepes, pH 8.0, 300 mM NaCl, 250 mM imidazole, 2 mM βME). Fractions containing the 14-3-3 protein were combined and dialyzed into 25 mM HEPES pH 8.0, 200 mM NaCl, 10 mM MgCl2, 2 mM βME. In addition, 1 mg TEV was added for each 100 mg purified protein to remove the purification tag. The cleaved sample was then again loaded on a 10 mL Ni-NTA column to separate the cleaved product from the expression tag and residual uncleaved protein. The flowthrough was loaded on a Superdex 75 pg 16/60 size exclusion column (GE Life Sciences) using 25 mM HEPES, 100 mM NaCl, 10 mM MgCl2, 500 μM TCEP (adjusted to pH=8.0) as running buffer. Fractions containing the 14-3-3 protein were pooled and concentrated to ∼60 mg/mL, analyzed Q-Tof LC/MS, and aliquots were flash-frozen for storage at −80 […]
The peptides 1 and 2a-d were synthesized on 50 µmol scale on a Rink amide MBHA resin […]
Background: In fluorescence polarisation assays a small probe gives low polarisation when free and higher when bound to something large.

[1] abbreviates: FA KD of peptide divided by KD of previous (one amino acid longer) peptide, mean of n = 3.
The mark [2] stands for this setting: KD / KD of previous peptide, replicate 1.
The mark [3] stands for this setting: KD / KD of previous peptide, replicate 2.
The mark [4] stands for this setting: KD / KD of previous peptide, replicate 3.
[5] abbreviates: calculated from FA KD, mean of n = 3.
Where [6] appears, read: ΔG minus ΔG of previous peptide, replicate 1.
The mark [7] stands for this setting: ΔG minus ΔG of previous peptide, replicate 2.
Setting [8] is: ΔG minus ΔG of previous peptide, replicate 3.
[9] abbreviates: ΔG of peptide minus ΔG of previous (one amino acid longer) peptide, mean of n = 3.

Take `CCC[C@H](NC(=O)[C@@H](CCCCN)NC(=O)COCCNC(=S)Nc1ccc2c(c1)C(=O)OC21c2ccc(O)cc2Oc2cc(O)ccc21)C(=O)N[C@@H](Cc1ccc([N+](=O)[O-])cc1)C(=O)NC(Cc1cscn1)C(=O)N[C@@H](COP(=O)(O)O)C(=O)N[C@@H](Cc1ccc([N+](=O)[O-])cc1)C(=O)N[C@@H](CO)CC(N)=O` (stereo partly drawn) [2g] ({FITC-AEA}-[dK][Nva][Phe(4-NO2)][ξAla(4-thiazolyl)][pS][Phe(4-NO2)][β3hS]-NH2): the “individual ΔΔG of removed residue” value stood at 0.4 kcal/mol. Besides, the “Fold change to previous” value under setting [1] is 1,85. The “Fold change to previous” value under setting [2] is 1,92. Moreover, the “Fold change to previous” value under setting [3] was 1,84. Also, under setting [4], the “Fold change to previous” value was 1,79. For the same compound, the ΔG under setting [5] is reported as -7,67 kcal/mol. Also, under “from FA KD, replicate 1”, the ΔG is recorded as -7,71 kcal/mol. Further, the ΔG (from FA KD, replicate 2) is reported as -7,59 kcal/mol. Besides, under “from FA KD, replicate 3”, the ΔG is listed as -7,73 kcal/mol. Besides, the “ΔΔG (to previous)” value under setting [6] is reported as 0,39 kcal/mol. Further, the “ΔΔG (to previous)” value under setting [7] is recorded as 0,36 kcal/mol. The “ΔΔG (to previous)” value under setting [8] is 0,34 kcal/mol. For the same compound, under setting [9], the “ΔΔG (to previous)” value was 0,36 kcal/mol.

Consider `CCC[C@H](NC(=O)[C@@H](CCCCN)NC(=O)COCCNC(=S)Nc1ccc2c(c1)C(=O)OC21c2ccc(O)cc2Oc2cc(O)ccc21)C(=O)N[C@@H](Cc1ccc([N+](=O)[O-])cc1)C(=O)NC(Cc1cscn1)C(=O)N[C@@H](COP(=O)(O)O)C(=O)N[C@@H](Cc1ccc([N+](=O)[O-])cc1)C(N)=O` (stereo partly shown) [2h] ({FITC-AEA}-[dK][Nva][Phe(4-NO2)][ξAla(4-thiazolyl)][pS][Phe(4-NO2)]-NH2), for which the “individual ΔΔG of removed residue” value was found to be 0.6 kcal/mol. The “Fold change to previous” value under setting [1] is 2,92. The “Fold change to previous” value under setting [2] was 2,91. Further, the “Fold change to previous” value under setting [3] is 2,67. Besides, the “Fold change to previous” value under setting [4] was 3,19. The ΔG under setting [5] was -7,04 kcal/mol. The ΔG (from FA KD, replicate 1) is -7,08 kcal/mol. Besides, the ΔG (from FA KD, replicate 2) is recorded as -7,00 kcal/mol. Also, the ΔG (from FA KD, replicate 3) is given as -7,04 kcal/mol. The “ΔΔG (to previous)” value under setting [6] is 0,63 kcal/mol. In addition, the “ΔΔG (to previous)” value under setting [7] was 0,58 kcal/mol. Under setting [8], the “ΔΔG (to previous)” value is 0,69 kcal/mol. Under setting [9], the “ΔΔG (to previous)” value was 0,63 kcal/mol.

In the case of `CCC[C@H](NC(=O)[C@@H](CCCCN)NC(=O)COCCNC(=S)Nc1ccc2c(c1)C(=O)OC21c2ccc(O)cc2Oc2cc(O)ccc21)C(=O)N[C@@H](Cc1ccc([N+](=O)[O-])cc1)C(=O)NC(Cc1cscn1)C(=O)N[C@@H](COP(=O)(O)O)C(=O)N[C@@H](Cc1ccc([N+](=O)[O-])cc1)C(=O)N[C@@H](CO)CC(=O)NCCC(N)=O` (stereo partly drawn) [2f] ({FITC-AEA}-[dK][Nva][Phe(4-NO2)][ξAla(4-thiazolyl)][pS][Phe(4-NO2)][β3hS][βAla]-NH2), the “individual ΔΔG of removed residue” value is 1.5 kcal/mol. In addition, the “fold change in binding affinity on truncation” value (FA KD relative to the previous (one amino acid longer) peptide) came out at 12 fold. In addition, the “Fold change to previous” value under setting [1] is reported as 12,39. Moreover, under setting [2], the “Fold change to previous” value is 12,69. In addition, the “Fold change to previous” value under setting [3] is listed as 11,53. Further, under setting [4], the “Fold change to previous” value is on record as 12,93. Moreover, under setting [5], the ΔG is reported as -8,04 kcal/mol. Besides, where the note is “from FA KD, replicate 1”, the ΔG was -8,10 kcal/mol. Also, the ΔG (from FA KD, replicate 2) is -7,95 kcal/mol. The ΔG (from FA KD, replicate 3) is reported as -8,07 kcal/mol. Also, the “ΔΔG (to previous)” value under setting [6] is given as 1,50 kcal/mol. The “ΔΔG (to previous)” value under setting [7] is recorded as 1,45 kcal/mol. The “ΔΔG (to previous)” value under setting [8] is given as 1,52 kcal/mol. Also, the “ΔΔG (to previous)” value under setting [9] is given as 1,49 kcal/mol.
